We go through ten compounds from patent US20240226228A1, “ANTIMICROBIAL PEPTOID HAVING IMPROVED SELECTIVITY AND ANTIMICROBIAL COMPOSITION COMPRISING SAME” (priority 2021, published 2024).

The subject of one series is E. coli ATCC25922. The conditions noted are these: for antimicrobial activity against E. coli (in words): compared to Peptoid 1. As for the experimental part: To measure the antimicrobial activity of the peptoids synthesized in Example 1, an E. coli ATCC25922 strain as gram-negative bacteria and an S. aureus KCTC25923 strain as gram-positive bacteris, were treated with the peptoids, followed by measuring the minimum inhibitory concentration (MIC). Peptoids 1 and 2 are antimicrobial peptoids known in the art, and used as controls for comparing antimicrobial activity with a novel peptoid.
Specifically, the S. aureus KCTC25923 or E. coli ATCC25922 strain was inoculated into a Mueller Hinton Broth (MHB2) liquid medium in which cations had been adjusted in the medium, cultured at 37° C. for 18 hours, subcultured, and then incubated for 4 hours. Afterward, for each bacterial strain, an optical density (OD, 0.001) was adjusted so that the bacterial count became 2×10^5 to 5×10^5 colony-forming units (CFU) per mL, which was then diluted with a MHB2 liquid medium containing 0.02% bovine serum albumin and 0.001% acetic acid, and dispensed at 100 μL into a 96-well microplate. Using sterile water, a peptoid stock 40 times stronger than a concentration to be tested was subjected to two-fold serial dilution and assessed at six different concentrations, and the maximum value of the peptoid concentrations was 25 μM. Subsequently, the plate was incubated at 37° C. for 24 hours. Afterward, optical density (OD) values at 600 nm were measured using a microplate reader (Bio-Rad).
Each MIC value was determined as the average value of a value obtained through three independent experiments.
Referring to Table 22, to measure the antimicrobial activity of the peptoids synthesized in Example 3, an MIC was measured by treating gram-negative bacteria, that is, the E. coli ATCC25922 strain, and gram-positive bacteria, that is, the S. aureus ATCC25923 strain, with the peptoids. Here, Peptoid 1 is a conventionally known antimicrobial peptoid, and Omiganan is a derivative of indolicidin, which is an antimicrobial peptide, under clinical development, and was used as a control for comparing antimicrobial activity with the novel peptoid.

For the next series, the system named is red blood cells. Briefly: Hemolysis assay. The series is classed as cell-based, Sprague-Dawley mouse. As for the experimental part:
To confirm cytotoxicity by the hemolytic activity of each peptoid synthesized in Example 1, hemolysis analysis was performed. The used blood was collected from a 13-week-old male Sprague-Dawley […] in a tube containing 158 UPS sodium heparin for preventing coagulation, and centrifuged at 4° C. for 10 minutes at 1,000 rpm. Afterward, the plasma was carefully removed, red blood cells were washed with phosphate-buffered saline (PBS: a mixed solution of 35 mM phosphate-buffered solution/150 mM NaCl, pH 7.4) three times and centrifuged at 1,000 rpm for 10 minutes. A 10% (v/v) red blood cell solution diluted in PBS was dispensed at 150 μL into a 96-well plate (microtiter plate), a peptoid solution was added at 50 μL, and 1% Triton X-100 was added. Afterward, the red blood cells were incubated at 37° C. for 1 hour, and the incubated 96-well plate was centrifuged at 1,000 rpm for 15 minutes. A supernatant was obtained and transferred to a new 96-well plate at 150 μL, and absorbance was measured using a spectrophotometer at 540 nm. Percent hemolysis may be calculated by the following Equation 1, and the corresponding results are shown in Tables 11 to 13. % Hemolysis=(A−C)/(B−C)×100 [Equation 1] In Equation 1, A is the absorbance of the peptoid solution at 540 nm, B is the absorbance of the 0.1% Triton X-100 at 540 nm, and C is the absorbance of the PBS solution at 540 nm.

Structures are written as SMILES. In brackets after ≈: the same amount, converted by molar mass. Like-named read-outs stand apart in the source and are kept apart here. Where a SMILES comes first, the peptide text is derived from it. [ ]: non-standard residue; d: D form. Gly(N(CH2)2(3-indolyl)) = O=C(O)CNCCc1c[nH]c2ccccc12; Nspe = C[C@H](NCC(=O)O)c1ccccc1; Nphe = O=C(O)CNCc1ccccc1; Nlys = NCCCCNCC(=O)O Some results are limits rather than exact numbers.

Take `C[C@@H](c1ccccc1)N(CC(N)=O)C(=O)CN(C(=O)CN(CCCCN)C(=O)CN(C(=O)CN(C(=O)CN(CCCCN)C(=O)CN(C(=O)CN(C(=O)CN(CCCCN)C(=O)CN(C(=O)CN(C(=O)CN(CCCCN)C(=O)CN(CCc1c[nH]c2ccccc12)C(=O)CNCCc1c[nH]c2ccccc12)[C@@H](C)c1ccccc1)[C@@H](C)c1ccccc1)[C@@H](C)c1ccccc1)[C@@H](C)c1ccccc1)[C@@H](C)c1ccccc1)[C@@H](C)c1ccccc1)[C@@H](C)c1ccccc1` [Peptoid 6, H-NhTrp-NhTrp-NLys-Nspe-Nspe-NLys-Nspe-Nspe-NLys-Nspe-Nspe-NLys-Nspe-Nspe-NH2]: the “antimicrobial activity against E. coli (in words)” value in the series with E. coli ATCC25922 is listed as “lost antimicrobial activities against E. coli”.

With `C[C@@H](c1ccccc1)N(CC(=O)N(CCCCN)CC(=O)N(CC(=O)N(CC(=O)N(CCCCN)CC(=O)N(CCc1c[nH]c2ccccc12)CC(=O)N(CCc1c[nH]c2ccccc12)CC(=O)N(CCCCN)CC(=O)N(CCc1c[nH]c2ccccc12)CC(=O)N(CCc1c[nH]c2ccccc12)CC(N)=O)[C@@H](C)c1ccccc1)[C@@H](C)c1ccccc1)C(=O)CN(C(=O)CNCCCCN)[C@@H](C)c1ccccc1` [Peptoid 19] (H-[Nlys][Nspe][Nspe][Nlys][Nspe][Nspe][Nlys][Gly(N(CH2)2(3-indolyl))][Gly(N(CH2)2(3-indolyl))][Nlys][Gly(N(CH2)2(3-indolyl))][Gly(N(CH2)2(3-indolyl))]-NH2), the “MIC E. coli ATCC25922” value against E. coli ATCC25922 (Tables 11-13, 24 hours at 37° C., maximum concentration 25 μM) was 12.5 µM (≈ 24.7 µg/mL). Also, the “Hmax (100 μM)” value in the series on red blood cells is 101.5 ± 1.3%. In the series on red blood cells (Tables 11-13, concentration that induces hemolysis in 10% red blood cells), this compound yielded an HC10 of 3.8 µM. Besides, the HC50 – broadly, the concentration that lyses half of the red blood cells – in the series with red blood cells (Tables 11-13, concentration that induces hemolysis in 50% red blood cells) worked out at 12.5 µM.

Turning to `C[C@@H](c1ccccc1)N(CC(=O)N(CCCCN)CC(=O)N(CC(=O)N(CC(=O)N(CCCCN)CC(=O)N(CC(=O)N(CC(=O)N(CCCCN)CC(=O)N(CC(=O)N(CC(=O)N(CCc1c[nH]c2ccccc12)CC(N)=O)[C@@H](C)c1ccccc1)[C@@H](C)c1ccccc1)[C@@H](C)c1ccccc1)[C@@H](C)c1ccccc1)[C@@H](C)c1ccccc1)[C@@H](C)c1ccccc1)C(=O)CN(C(=O)CN(CCCCN)C(=O)CNCCc1c[nH]c2ccccc12)[C@@H](C)c1ccccc1` [Peptoid 5, H-NhTrp-NLys-Nspe-Nspe-NLys-Nspe-Nspe-NLys-Nspe-Nspe-NLys-Nspe-Nspe-NhTrp-NH2] (H-[Gly(N(CH2)2(3-indolyl))][Nlys][Nspe][Nspe][Nlys][Nspe][Nspe][Nlys][Nspe][Nspe][Nlys][Nspe][Nspe][Gly(N(CH2)2(3-indolyl))]-NH2), the “antimicrobial activity against E. coli (in words)” value in the series on E. coli ATCC25922 was “lost antimicrobial activities against E. coli”.

Consider `C[C@@H](c1ccccc1)N(CC(=O)N(CCCCN)CC(=O)N(CC(=O)N(CC(=O)N(CCCCN)CC(=O)N(CC(=O)N(CC(=O)N(CCCCN)CC(=O)N(CC(=O)N(CC(=O)N(CCc1c[nH]c2ccccc12)CC(N)=O)[C@@H](C)c1ccccc1)[C@@H](C)c1ccccc1)[C@@H](C)c1ccccc1)[C@@H](C)c1ccccc1)[C@@H](C)c1ccccc1)[C@@H](C)c1ccccc1)C(=O)CN(C(=O)CNCCCCN)[C@@H](C)c1ccccc1` [Peptoid 4] (H-[Nlys][Nspe][Nspe][Nlys][Nspe][Nspe][Nlys][Nspe][Nspe][Nlys][Nspe][Nspe][Gly(N(CH2)2(3-indolyl))]-NH2), for which, in the series on red blood cells, the HC10 was less than 6.3 µM, the HC50 came to 6.7 µM and the “Hmax (100 μM)” value is listed as 103.2 ± 0.9%.

On to `C[C@@H](c1ccccc1)N(CC(N)=O)C(=O)CN(CCCCN)C(=O)CN(C(=O)CN(C(=O)CN(CCCCN)C(=O)CN(C(=O)CN(C(=O)CN(CCCCN)C(=O)CN(C(=O)CN(CCCCN)C(=O)CN(CCCCN)C(=O)CN(C(=O)CNCCc1c[nH]c2ccccc12)[C@@H](C)c1ccccc1)[C@@H](C)c1ccccc1)[C@@H](C)c1ccccc1)[C@@H](C)c1ccccc1)[C@@H](C)c1ccccc1)[C@@H](C)c1ccccc1` [Peptoid 61], for which, in the series with red blood cells, the HC10 was 19.3 µM, the HC50 came out at 65.4 µM and the “Hmax (100 μM)” value worked out at 79.9 ± 0.7%.

As for `C[C@@H](c1ccccc1)N(CC(N)=O)C(=O)CN(C(=O)CN(CCCCN)C(=O)CN(C(=O)CN(C(=O)CN(CCCCN)C(=O)CN(C(=O)CN(C(=O)CN(CCCCN)C(=O)CN(C(=O)CN(C(=O)CN(CCCCN)C(=O)CN(Cc1ccccc1)C(=O)CNCc1ccccc1)[C@@H](C)c1ccccc1)[C@@H](C)c1ccccc1)[C@@H](C)c1ccccc1)[C@@H](C)c1ccccc1)[C@@H](C)c1ccccc1)[C@@H](C)c1ccccc1)[C@@H](C)c1ccccc1` [Peptoid 43], in the series with red blood cells, the HC10 was less than 3.1 µM, the HC50 turned out to be 6.4 µM and the “Hmax (100 μM)” value amounted to 105.6 ± 3.8%.

With `C[C@@H](c1ccccc1)N(CC(N)=O)C(=O)CN(C(=O)CN(CCCCN)C(=O)CN(CCc1c[nH]c2ccccc12)C(=O)CN(C(=O)CN(CCCCN)C(=O)CN(C(=O)CN(C(=O)CN(CCCCN)C(=O)CN(C(=O)CN(C(=O)CNCCCCN)[C@@H](C)c1ccccc1)[C@@H](C)c1ccccc1)[C@@H](C)c1ccccc1)[C@@H](C)c1ccccc1)[C@@H](C)c1ccccc1)[C@@H](C)c1ccccc1` [Peptoid 8], in the series on red blood cells, the HC10 was 12.8 µM, the HC50 was 28.4 µM and the “Hmax (100 μM)” value came out at 105.1 ± 2.2%.

For `C[C@@H](c1ccccc1)N(CC(=O)N(CCCCN)CC(=O)N(CC(=O)N(CC(=O)N(CCCCN)CC(=O)N(CC(=O)N(CC(=O)N(CCCCN)CC(=O)N(CC(=O)N(CC(=O)N(CC(N)=O)Cc1ccccc1)[C@@H](C)c1ccccc1)[C@@H](C)c1ccccc1)[C@@H](C)c1ccccc1)[C@@H](C)c1ccccc1)[C@@H](C)c1ccccc1)[C@@H](C)c1ccccc1)C(=O)CN(C(=O)CN(CCCCN)C(=O)CNCc1ccccc1)[C@@H](C)c1ccccc1` [Peptoid 42] (H-[Nphe][Nlys][Nspe][Nspe][Nlys][Nspe][Nspe][Nlys][Nspe][Nspe][Nlys][Nspe][Nspe][Nphe]-NH2), in the series on red blood cells, the HC10 was less than 3.1 µM, the HC50 was determined as 6.6 µM and the “Hmax (100 μM)” value is reported as 105.9 ± 1.1%.

On to `C[C@@H](c1ccccc1)N(CC(N)=O)C(=O)CN(C(=O)CN(CCCCN)C(=O)CN(C(=O)CN(C(=O)CN(CCCCN)C(=O)CN(C(=O)CN(C(=O)CN(CCCCN)C(=O)CN(C(=O)CN(C(=O)CN(CCCCN)C(=O)CNCCc1c[nH]c2ccccc12)[C@@H](C)c1ccccc1)[C@@H](C)c1ccccc1)[C@@H](C)c1ccccc1)[C@@H](C)c1ccccc1)[C@@H](C)c1ccccc1)[C@@H](C)c1ccccc1)[C@@H](C)c1ccccc1` [Peptoid 3], for which, in the series with red blood cells, the HC10 was 6.3 µM, the 50% haemolytic concentration (HC50) was found to be 13.9 µM and the “Hmax (100 μM)” value is given as 100.5 ± 9.9%.

In the case of `C[C@@H](c1ccccc1)N(CC(N)=O)C(=O)CN(CCCCN)C(=O)CN(C(=O)CN(C(=O)CN(CCCCN)C(=O)CN(C(=O)CN(CCCCN)C(=O)CN(CCCCN)C(=O)CN(C(=O)CN(C(=O)CN(CCCCN)C(=O)CN(C(=O)CNCCc1c[nH]c2ccccc12)[C@@H](C)c1ccccc1)[C@@H](C)c1ccccc1)[C@@H](C)c1ccccc1)[C@@H](C)c1ccccc1)[C@@H](C)c1ccccc1)[C@@H](C)c1ccccc1` [Peptoid 62], in the series on red blood cells, the HC10 stood at 36.2 µM, the HC50 was greater than 100 µM and the “Hmax (100 μM)” value worked out at 44.8 ± 8.1%.
